# Counter-ions that a name gives are not always drawn. Like-named read-outs stand apart in the source and are kept apart here.
# Assays:
# [1] = Blood brain barrier permeation; type: in vivo, ICR mice; settings: male, ICR, mouse, po; for Kp at 1 h / Kp at 4 h: brain/plasma, read-out: B/P ratio
# Protocol: Using 9-week-old male ICR mice, the compounds obtained in the above Examples were orally administered once at a dose of 10 mg/kg or 30 mg/kg, and after 1 hr and 4 hrs, the concentrations of the compounds in the blood and brain of the mice were determined. 3 ICR mice were assigned in each group. Plasma was separated from the blood obtained after sacrificing the mice at each time, the brain of the mice was extracted, and the […] was washed with PBS, followed by pulverizing the brain tissue. The blood was placed in a test tube containing heparin to prevent coagulation and then was centrifuged at 12,000 rpm at 4° C. for 3 min to give a supernatant from which plasma was collected. Brain tissue was weighed, and the brain was pulverized using Dounce's homogenizer after adding 3 times as much volume of PBS as the brain weight. Each of the obtained analytical samples was quantitatively analyzed using a tandem liquid chromatography-mass spectrometer (Tandem LC/MS/MS, API3000 & Agilent 1100 series). Brain permeability of a compound is expressed as a value obtained by dividing the concentration of the compound in the brain by the concentration of the compound in the plasma (B/P ratio), and when the B/P ratio is greater than 1, it means that the concentration in the brain is higher than the one in the blood.
# SH-SY5Y = test: Inhibition of cancer cell proliferation (MTT); type: cell-based, human
# Method in brief: (§1)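 Absorbance at 535 nm of DMSO-dissolved formazan (2 h MTT) gives viability versus 0.08% DMSO-treated cells, and GI50 is derived from eight concentrations between 0.004 and 10 uM. Exposure lasts 72 h at 37 °C, 5% CO2, using 3000 cells/well in 10% FBS medium ([…] for NCI-H23, otherwise DMEM).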
# T98G = test: Inhibition of cancer cell proliferation (MTT); type: cell-based, human
# Method in brief: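 Plate 3000 cells/well and let them adhere for 16 h. Add compound (0.004, 0.013, 0.04, 0.12, 0.37, 1.1, 3.3, 10 uM; 0.08% DMSO) and culture for 72 h. Add MTT for 2 h, dissolve formazan in DMSO, read at 535 nm, and fit GI50.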
# U-87MG = test: Inhibition of cancer cell proliferation (MTT); type: cell-based, human
# Method in brief: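 Growth inhibition over 72 h was measured in attached cultures (3000 per well) with 0.08% DMSO as the control. Viable cells were detected with a 2 h MTT step, and the concentration giving 50% inhibition was taken as GI50.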
# SK-N-SH = test: Inhibition of cancer cell proliferation (MTT); type: cell-based, human
# Method in brief: as §1
# [2] = test system: human colon carcinoma cell line HCT116; test: Cell cycle change by flow cytometry, cancer cells; type: cell-based; settings: 24 hrs
# Protocol: (§2) A human colon carcinoma cell line HCT116 and a human normal lung cell line MRC5 were cultured in DMEM medium containing 10% FBS. Each cultured cells were harvested, placed in 6 well plate at 1×10^6 cells/well, and cultured at 5% CO2 and 37° C. for 16 hrs. The compounds of the above Examples at 75 nM and 150 nM in DMEM containing 5% FBS were added to the cells in each well, and after 24 hrs a change in the cell cycle was analyzed using a flow cytometry. Media of treatment groups and a control group were removed, trypsin was added to isolate cells from the plates and the cells were centrifuged at 1000 g for 3 min. The isolated cells were washed with a cold phosphate buffer (PBS) two times. Afterwards, 1 ml of 70% ethanol was added to the cells and the cells were maintained at 4° C. for 30 min or more to fix the cells. The fixed cells were centrifuged at 1000 g for 3 min to remove ethanol, and washed with phosphate buffer (PBS) two times to remove ethanol completely. The washed cells were suspended in 250 ul of PBS, 6.25 ul of 10 mg/ml RNaseA was added to the suspension and reacted for 15 min at room temperature to degrade all RNA. 12.5 ul of 1 mg/ml propidium iodide (PI, sigma) was added to stain intracellular DNA. The cell cycles of 10,000 stained cells were measured using FACS calibur (Becton-Dickinson, USA) and cell numbers present in G1, S and G2/M phases were calculated as percentage using a cell cycle analysis program. Tables 3 and 4 show the results of cell cycle analysis for the compound obtained in Example 1 in cancer cells and normal cells, respectively.
# [3] = test system: human normal lung cell line MRC5; test: Cell cycle change by flow cytometry, normal cells; type: cell-based; settings: 24 hrs
# Protocol: as §2
# A549 = test: Inhibition of cancer cell proliferation (MTT); type: cell-based, human; settings: Homo sapiens, A549, 72 h
# Method in brief: as §1
# NCI-H23 = test: Inhibition of cancer cell proliferation (MTT); type: cell-based, human; settings: Homo sapiens, NCI-H23, 72 h
# Method in brief: as §1
# [4] = brain, 30 mg/kg, oral once 30 mg/kg, read-out: Concentration in the brain
# [5] = plasma, 30 mg/kg, oral once 30 mg/kg, read-out: Concentration in the plasma
# [6] = brain, 10 mg/kg, oral once 10 mg/kg, read-out: Concentration in the brain
# [7] = plasma, 10 mg/kg, oral once 10 mg/kg, read-out: Concentration in the plasma
SMILES,"concentration at 1 h [1, 4]","concentration at 4 h [1, 4]","Kp at 1 h ([1]; 30 mg/kg, oral once 30 mg/kg)","Kp at 4 h ([1]; 30 mg/kg, oral once 30 mg/kg)","concentration at 1 h [1, 5]","concentration at 4 h [1, 5]","GI50 (SH-SY5Y; Homo sapiens, SH-SY5Y, 72 h)","GI50 (U-87MG; Homo sapiens, U-87 MG, 72 h)","GI50 (SK-N-SH; Homo sapiens, SK-N-SH, 72 h)","concentration at 1 h [1, 6]","concentration at 4 h [1, 6]","Kp at 1 h ([1]; 10 mg/kg, oral once 10 mg/kg)","Kp at 4 h ([1]; 10 mg/kg, oral once 10 mg/kg)","concentration at 1 h [1, 7]","concentration at 4 h [1, 7]",GI50 (A549),GI50 (NCI-H23),further results
Nc1nccc(-c2nc(-c3ccnc(N)c3F)ccc2O)n1 [Example 8],144 ng/g,70.9 ng/g,1.53,2.41,0.0943 µg/mL,0.0294 µg/mL,–,–,–,–,–,–,–,–,–,–,–,GI50 (SH-SY5Y; 72 hrs): 0.01 µM; GI50 (T98G; 72 hrs): 0.19 µM; GI50 (U-87MG; 72 hrs): 0.06 µM; GI50 (SK-N-SH; 72 hrs): 0.01 µM
"Nc1nccc(-c2ccc(O)c(-c3ccnc(N)n3)n2)n1 [Example 1, 2,6-bis(2-aminopyrimidin-4-yl)pyridin-3-ol]",–,–,–,–,–,–,0.15 µM,0.85 µM,0.28 µM,–,–,–,–,–,–,–,–,"G1 (cell numbers as percentage) ([2]; HCT116, 75 nM): 22.3%; G2/M (cell numbers as percentage) ([2]; HCT116, 75 nM): 51.5%; Polyploidy (cell numbers as percentage) ([2]; HCT116, 75 nM): 16.3%; S (cell numbers as percentage) ([2]; HCT116, 75 nM): 5.3%; Sub-G1 (cell numbers as percentage) ([2]; HCT116, 75 nM): 4.9%; G1 (cell numbers as percentage) ([2]; HCT116, 150 nM): 4.3%; G2/M (cell numbers as percentage) ([2]; HCT116, 150 nM): 54.4%; Polyploidy (cell numbers as percentage) ([2]; HCT116, 150 nM): 23.3%; S (cell numbers as percentage) ([2]; HCT116, 150 nM): 2.6%; Sub-G1 (cell numbers as percentage) ([2]; HCT116, 150 nM): 5.8%; G1 (cell numbers as percentage) ([3]; MRC5, 75 nM): 50.7%; G2/M (cell numbers as percentage) ([3]; MRC5, 75 nM): 22.8%; Polyploidy (cell numbers as percentage) ([3]; MRC5, 75 nM): 8.8%; S (cell numbers as percentage) ([3]; MRC5, 75 nM): 9.1%; Sub-G1 (cell numbers as percentage) ([3]; MRC5, 75 nM): 8.8%; G1 (cell numbers as percentage) ([3]; MRC5, 150 nM): 44.0%; G2/M (cell numbers as percentage) ([3]; MRC5, 150 nM): 26.6%; Polyploidy (cell numbers as percentage) ([3]; MRC5, 150 nM): 10.2%; S (cell numbers as percentage) ([3]; MRC5, 150 nM): 6.8%; Sub-G1 (cell numbers as percentage) ([3]; MRC5, 150 nM): 12.8%"

# Now from value to compound, other results behind:
"concentration at 1 h [1, 4]","concentration at 4 h [1, 4]","Kp at 1 h ([1]; 30 mg/kg, oral once 30 mg/kg)","Kp at 4 h ([1]; 30 mg/kg, oral once 30 mg/kg)","concentration at 1 h [1, 5]","concentration at 4 h [1, 5]","GI50 (SH-SY5Y; Homo sapiens, SH-SY5Y, 72 h)","GI50 (U-87MG; Homo sapiens, U-87 MG, 72 h)","GI50 (SK-N-SH; Homo sapiens, SK-N-SH, 72 h)","concentration at 1 h [1, 6]","concentration at 4 h [1, 6]","Kp at 1 h ([1]; 10 mg/kg, oral once 10 mg/kg)","Kp at 4 h ([1]; 10 mg/kg, oral once 10 mg/kg)","concentration at 1 h [1, 7]","concentration at 4 h [1, 7]",GI50 (A549),GI50 (NCI-H23),SMILES,further results
129 ng/g,23.2 ng/g,1.56,2.78,0.0826 µg/mL,0.0083 µg/mL,0.11 µM,0.38 µM,0.24 µM,–,–,–,–,–,–,–,–,"Nc1cc(-c2ccc(O)c(-c3ccnc(N)n3)n2)ccn1 [Example 10, 2′-amino-6-(2-aminopyrimidin-4-yl)-[2,4′-bipyridin]-5-ol]",–
–,–,–,–,–,–,–,0.01 µM,–,3120 ng/g,165 ng/g,2.26,3.18,1.38 µg/mL,0.0521 µg/mL,0.02 µM,0.04 µM,"Cc1cc(-c2nc(-c3ccnc(N)c3F)ccc2O)nc(N)n1 [Example 71, 2′-amino-6-(2-amino-6-methylpyrimidin-4-yl)-3′-fluoro-[2,4′-bipyridin]-5-ol 3hydrochloride]","GI50 (T98G; Homo sapiens, T98G, 72 h): 0.06 µM"
768 ng/g,577 ng/g,2.76,4.49,0.278 µg/mL,0.129 µg/mL,–,–,–,296 ng/g,90.3 ng/g,1.05,1.04,0.283 µg/mL,0.0865 µg/mL,0.21 µM,0.43 µM,"Nc1nccc(-c2ccc(O)c(-c3ccnc(N)n3)n2)n1 [Example 61, 2,6-bis(2-aminopyrimidin-4-yl)pyridin-3-ol 3hydrochloride]",–
